Experimental data reported in PubChem BioAssay AID1996.
Converted amounts (≈) assume the structure as drawn.

Conditions: buffer; pH 7.4; 200.0 µM

SMILES | solubility kinetic
Cc1ccc(N(CC(=O)NC2CCCC2)C(=O)c2ccc(C)s2)cc1 | 49.2 µg/mL (≈ 138 µM)
Cc1ccc(C(C)C)cc1OCC(=O)NCCCn1ccnc1 | > 47.3 µg/mL
O=C(NCC1CC1)Nc1cccc(Cl)c1 | > 33.7 µg/mL
COc1cccc(-c2noc(CCC(=O)NC3CCCC3)n2)c1 | > 47.3 µg/mL
CN(C)CC(=O)N1CCc2ccccc2C1.O=C(O)C(=O)O | > 46.2 µg/mL
COC(=O)c1cc(C(=O)c2ccc(C(C)(C)C)cc2)c[nH]1 | 18.2 µg/mL (≈ 63.8 µM)
CN(C)c1ccc(/C=C/c2nc3ccccc3c(=O)[nH]2)cc1 | 0.6 µg/mL (≈ 2.06 µM)
COc1ccc(NC(=O)CC(Cc2ccc(Cl)cc2)C(=O)O)cc1 (stereo not given) | > 52.2 µg/mL
COc1ccccc1NC(=S)Nc1cccc2cnccc12 | 40.9 µg/mL (≈ 132 µM)
CCc1cc(=O)[nH]c(SCc2cccnc2)n1 | > 37.1 µg/mL
CC(=O)c1ccc(C(=O)N2CCCC(Nc3ccccc3)C2)s1 (stereo not given) | 41.2 µg/mL (≈ 125 µM)
O=C(CSc1nncs1)NNC(=O)c1ccccc1Br | > 56 µg/mL
Oc1ccccc1N1CCN(c2ccc3ccccc3n2)CC1 | 4.2 µg/mL (≈ 13.8 µM)
COc1ccc(NC(=O)CC(NC(C)c2ccccc2)C(=O)O)cc1 (stereo not given) | 44.2 µg/mL (≈ 129 µM)
Nc1nc2c([N+](=O)[O-])cccc2s1 | 23 µg/mL (≈ 118 µM)
COC(OC)C(C)NC(=O)NC(=O)c1ccccc1Cl (stereo not given) | 39.2 µg/mL (≈ 130 µM)
O=C(NC1=NCCS1)c1ccccc1 | 21.4 µg/mL (≈ 104 µM)
Cc1cnc(NC(=O)c2sc(Nc3ccccc3)nc2N)o1 | 6.4 µg/mL (≈ 20.3 µM)
N#CC1(P(=O)(c2ccccc2)c2ccccc2)CCCC1 | > 44.3 µg/mL
Clc1cccc(C2NCc3ccccc3-n3cccc32)c1 (stereo not given) | 3.5 µg/mL (≈ 11.9 µM)

SMILES | solubility kinetic
Cc1ccc(CN(C)Cc2cc(=O)oc3cc(C)c(Cl)cc23)cc1 | < 0.7 µg/mL
O=C(O)c1nccnc1C(=O)Nc1ccc(Cl)cn1 | 41.5 µg/mL (≈ 149 µM)
CN(C)c1ccc(S(=O)(=O)N2CCC(Cc3ccccc3)CC2)cn1 | 2 µg/mL (≈ 5.56 µM)
CCN(CC(=O)Nc1ccc(OC)cc1)C(=O)c1ccc2ccccc2c1 | 43.9 µg/mL (≈ 121 µM)
CC(=O)Nc1ccc(OCCOc2ccccc2C(C)=O)cc1 | > 47 µg/mL
CC(C)(C)NC(=O)CN(C(=O)C(=O)Nc1ccc2c(c1)OCCO2)C1CC1 | > 56.3 µg/mL
CN1CCCNc2nc3ccccc3nc21 | > 32.1 µg/mL
O=C(Nc1nc2ccsc2c(=O)s1)c1ccco1 | 7.3 µg/mL (≈ 26.2 µM)
Cc1ccc(S(=O)(=O)NCC(=O)OCC(=O)N2CC(C)OC(C)C2)cc1 (stereo not given) | > 57.7 µg/mL
O=C(NNC1CC(=O)N(c2ccc(Cl)cc2)C1=O)c1ccco1 (stereo not given) | > 50.1 µg/mL
Cl.NC(Cc1nc2ccccc2[nH]1)c1ccc(Cl)cc1 (stereo not given) | 37.7 µg/mL
O=C1/C(=C\c2cccc(O)c2)SC(=S)N1Cc1ccccc1 | < 0.7 µg/mL
CCOc1nc(C)ccc1-c1noc(-c2cccnc2)n1 | 11 µg/mL (≈ 39 µM)
CCn1c(SCC(=O)O)nc2ccccc21 | > 35.4 µg/mL
Cc1ccc(N=C2NC(=O)/C(=C/c3cccnc3)S2)cc1C | < 0.2 µg/mL
O=C(NC(=S)N1CCN(C2CCCCC2)CC1)c1ccccc1 | > 49.7 µg/mL
CC1Oc2ccccc2N(Cc2ccc(F)cc2)C1=O (stereo not given) | 23.4 µg/mL (≈ 86.3 µM)
CC1C(=O)Nc2ccccc2N1C(=O)c1ccc(F)cc1F (stereo not given) | > 45.3 µg/mL
CN(C(=O)CSc1nc2scc(-c3ccccc3)c2c(=O)[nH]1)c1ccccc1 | 11.2 µg/mL (≈ 27.5 µM)
CN(CC(=O)NCc1ccc2c(c1)OCO2)S(=O)(=O)c1ccc(Cl)cc1 | 8.6 µg/mL (≈ 21.7 µM)

SMILES | solubility kinetic
Cc1cc(Cl)nc(NC(=O)Nc2cccc(Cl)c2)n1 | < 0.2 µg/mL
O=C(c1ccc([N+](=O)[O-])o1)N1CCCCCC1 | > 35.7 µg/mL
O=C(CNCc1ccc(F)cc1)Nc1cc(S(=O)(=O)N2CCOCC2)ccc1Cl | 8.4 µg/mL (≈ 19 µM)
N/C(=N\[N+](=O)[O-])N1CCN(C(=O)c2ccccc2)CC1 | > 41.6 µg/mL
COc1ccc2[nH]cc(CCN(C)C)c2c1 | > 32.7 µg/mL
CC1CCC(C(C)C)C(OCC(O)CNC(C)C)C1.Cl (stereo not given) | > 46.2 µg/mL
O=C(NCCc1c[nH]c2ccccc12)c1ccc2c(c1)OCO2 | 44.5 µg/mL (≈ 144 µM)
CC1CC(C)(C)NC(=S)N1CC(=O)NCc1ccc(F)cc1 (stereo not given) | 41.5 µg/mL (≈ 128 µM)
COc1cc2ccccc2cc1C(=O)Nc1ccc(N2CCOCC2)cc1 | 0.8 µg/mL (≈ 2.21 µM)
CC1CCCCC1NC(=O)c1ccc(-n2cncn2)cc1 (stereo not given) | > 42.7 µg/mL
CCCSc1sc(C(=O)OC)c(-c2cccs2)c1C#N | < 0.7 µg/mL
Cc1cc(=O)oc2cc(NC(=O)Cc3ccccc3)ccc12 | 1.1 µg/mL (≈ 3.75 µM)
Cc1cc(C)n(-c2c(C)[nH]c3ccccc23)n1 | > 33.8 µg/mL
CCN(Cc1cnn(C)c1)Cc1nc(Cc2ccccc2Cl)no1 | > 51.9 µg/mL
O=C(Nc1ccc2c(c1)OCO2)c1ccccc1 | > 36.2 µg/mL
Cc1ccc2oc(C(=O)N3CCN(C)C[C@@H]3C(C)C)c(C)c2c1 | 34.3 µg/mL (≈ 109 µM)
Cc1sc2ncnc(NS(=O)(=O)c3ccc(Cl)cc3)c2c1C | 47.8 µg/mL (≈ 135 µM)
O=S(=O)(c1cccc2cccc(Cl)c12)N1CCCC1 | 15 µg/mL (≈ 50.7 µM)
CCOc1ccc(C(=O)NC2CCCCCCC2)cc1 | 2.5 µg/mL (≈ 9.08 µM)
CC(C)CC(=O)C1=C(O)C(=O)N(Cc2ccccc2)C1c1ccccc1 (stereo not given) | 47.3 µg/mL (≈ 135 µM)
